Consider seven compounds from US8912338B2, “Pesticidal compositions” (Dow AgroSciences LLC, priority 2010, dated 2014).

The term melting point denotes the temperature, or range, at which the solid turns liquid.

Data set [1] relates to Sweetpotato Whitefly (Bemisia tabaci). As to the kind of experiment: Insecticidal test for sweetpotato whitefly in foliar spray assay. Format: in vivo. Conditions: 200 ppm foliar spray on cotton plants infested with eggs, live nymphs counted after 8-9 days, Abbott's corrected % control, read-out: BEMITA % Ctrl @ 200 ppm. The method, then: Cotton plants were used as test substrate and were grown in 3-inch pots and pruned until only 1 small (3-5 cm) true leaf remained. The plants were then placed in a room with whitefly ([…]) adults and allowed to be infested with eggs. After a 2-3 day egg-laying period, plants were taken from the adult whitefly room and the adults were removed from the leaves using compressed air delivered through a hand-held Devilbiss sprayer (23 psi). Plants infested with eggs (100-300 eggs per plant) were placed in a controlled-environment room for 5-6 days at 82° F. and 50% RH until approximately 50% egg hatch. Four cotton plants (4 replicates) were used for each treatment. Compounds (2 mg) were dissolved in 1 mL of acetone solvent, forming stock solutions of 2000 ppm. The stock solutions were diluted 10× with 0.025% Tween 20 in H2O to obtain the test solution of 200 ppm. A hand-held Devilbiss sprayer was used for spraying a solution to both sides of cotton leaf until runoff. Reference plants (solvent check) were sprayed with the diluent only. Treated plants were held in a holding room for 8-9 days at approximately 82° F. and 50% RH prior to grading. Evaluation was conducted by counting the number of live nymphs per plant under a microscope. Insecticidal activity data presented in Table 3 were generated by using Abbott's correction formula: Corrected%Control=100*(X-Y)/X • where X=No. of live nymphs on solvent check plants • Y=No. of live nymphs on treated plants […]

The subject of data set [2] is Green Peach Aphid (Myzus persicae). Nature of the data set: Insecticidal test for green peach aphid in foliar spray assay. The class given is in vivo. To be noted: 72 h, 200 ppm foliar spray on cabbage seedlings, live aphids counted after three days, Abbott's corrected % control, read-out: MYZUPE % Ctrl @ 200 ppm.
The test system of data set [3] is Cotton Aphid (Aphis gossypii). Nature of the data set: Insecticidal test for cotton aphid in a foliar spray assay. The class given is in vivo. Conditions: 72 h, 200 ppm foliar spray on squash or cotton seedlings, live aphids counted after three days, Abbott's corrected % control, read-out: APHIGO % Ctrl @ 200 ppm.

Compound `CSCCOC(=O)N(C)c1nnc(-c2cccnc2)s1` [Compound 50, 2-(Methylthio)ethyl methyl(5-(pyridin-3-yl)-1,3,4-thiadiazol-2-yl)carbamate] returned a melting point of 126 to 128 °C. Also, the inhibition at 200 ppm in data set [1] was 0 to 80%. Besides, in data set [2], the inhibition at 200 ppm fell in the range of 80 to 100%. For the same compound, the inhibition at 200 ppm in data set [3] was in the range of 80 to 100%.
In the case of `CSCC(C)(C)C(=O)N(C)c1nnc(-c2cccnc2)s1` [Compound 24, N-2,2-trimethyl-3-(methylthio)-N-(5-(pyridin-3-yl)-1,3,4-thiadiazol-2-yl)propanamide], the melting point lay in the range of 89 to 91 °C. The inhibition at 200 ppm in data set [1] lay within 0 to 80%. Besides, the inhibition at 200 ppm in data set [2] lay within 80 to 100%. In addition, in data set [3], the inhibition at 200 ppm is 80 to 100%.
In turn, `CN(C(=O)CCSCCc1ccccc1)c1nnc(-c2cccnc2)s1` [Compound 5] came in with a melting point of 105 to 108 °C. Also, the inhibition at 200 ppm in data set [1] was 0 to 80%. Also, the inhibition at 200 ppm in data set [2] lay within 0 to 80%. The inhibition at 200 ppm in data set [3] fell in the range of 0 to 80%.
`CCN(C(=O)CCSC)c1nnc(-c2cccnc2)s1` [Compound 9] registered a melting point of 116 to 120 °C. Besides, the inhibition at 200 ppm in data set [1] was 0 to 80%. The inhibition at 200 ppm in data set [2] was 80 to 100%. Also, the inhibition at 200 ppm in data set [3] is 80 to 100%.
The compound `CN(C(=O)CCNC(=O)OC(C)(C)C)c1nnc(-c2cccnc2)s1` [Compound 38] displayed a melting point of 41 to 48 °C. Further, the inhibition at 200 ppm in data set [1] was in the range of 0 to 80%. Moreover, the inhibition at 200 ppm in data set [2] lay in the range of 80 to 100%. Besides, the inhibition at 200 ppm in data set [3] lay within 80 to 100%.
Consider `CCSCC(=O)N(C)c1nnc(-c2cccnc2)s1` [Compound 8], for which the melting point lay within 87 to 92 °C. The inhibition at 200 ppm in data set [1] was less than 0%. Further, the inhibition at 200 ppm in data set [2] fell in the range of 80 to 100%. For the same compound, the inhibition at 200 ppm in data set [3] lay within 80 to 100%.
Compound `CSCC(=O)N(C)c1nnc(-c2cccnc2)s1` [Compound 29] returned a melting point of 135 to 139 °C. Also, the inhibition at 200 ppm in data set [1] lay in the range of 0 to 80%. Besides, in data set [2], the inhibition at 200 ppm is 80 to 100%. Besides, the inhibition at 200 ppm in data set [3] lay in the range of 80 to 100%.
